This is an account of results in US12486218B2, “Compounds advantageous in the treatment of central nervous system diseases and disorders” (AurimMed Pharma, Inc., priority 2008, dated 2025).

As usually defined, the ED50 is the dose that gives a 50% effect, or the effect in half of the subjects.

A value given as a limit tells only on which side of the number the result lay.

The subject of data set [1] is mice. Kind of data set: Audiogenic Seizure susceptible (AGS) test, mice i.p. To be noted: Mus musculus, ip. The format is in vivo.
Data set [2] in a line: in vivo. To be noted: mouse, ip.
Description: The animal testing was performed according to methods known in the relevant art.
The test system of data set [3] is sodium channels. Put plainly: Electrophysiology, sodium currents. The format is cell-based. The settings on record: at 100 μM, ±S.E.M., 8 cells. The text has this:
The mechanisms of action of many currently marketed anticonvulsant drugs are not fully understood. Although numerous molecular targets exist wherein anticonvulsants may exert an effect, the final common pathway appears to be through modulation of voltage-gated and/or neurotransmitter-gated ion channels. Thus, the common link among the various proposed mechanisms involves the ability of an anticonvulsant to modulate ion channel function. Presently, a number of prototype anticonvulsants are thought to exert their action (at least in part) by reducing sustained, high-frequency repetitive firing of action potentials by modulating voltage-dependent sodium (Na+) channels. The effect of promising candidate substances on voltage-gated Na+ channels can be assessed using state-of-the-art electrophysiological techniques.
The effects of compound H (at a concentration of 100 μM) on sodium currents were evaluated in electrophysiological studies at holding potentials of −60 and −90 mV (using 8 cells). […] By way of comparison, the % of control inhibited for typical sodium-channel-blocking drugs such as phenytoin or lamotrigine is about 50%. […]

The test system of data set [4] is rats. Put plainly: Sciatic nerve ligation model in rats. To be noted: 62 mg/kg, at 0.5 hours. The format is in vivo. As for the experimental part: [The response (threshold for foot withdrawal) was measured in grams.]
For data set [5], the system named is mice. Kind of data set: Subcutaneous Metrazol Seizure threshold (s.c. MET) test, mice i.p. The data set is classed as in vivo. To be noted: Mus musculus.
For data set [6], the system named is type II SMA fibroblasts (GM03813). Kind of data set: SMN protein localization, gem counting in type II SMA fibroblasts. The data set is classed as cell-based. The settings on record: 100 nM-10 μM, 5 days. As for the experimental part:
To validate the SMN2 promoter and exon 7 screens, the effects of compounds H, H (acid form), AY, F, BX, and BY were evaluated on the basis of expression and localization of SMN protein in type II SMA fibroblasts (GM03813). In a normal cell, SMN protein localized within the nucleus to discreet foci known as gems. In SMN-deficient SMA cells, the number of gems is greatly diminished. Although the function of gems is unknown, it is believed that they are somehow involved in the snRNP assembly function of SMN. Gem counting can, therefore, be considered an assay for SMN function.
GM03813 fibroblasts were treated with different doses (100 nM-10 μM) of compounds H, H (acid form), AY, F, BX, and BY for 5 days. SMN immunostaining was then completed on these cells and the number of gems was counted in 100 randomly-selected nuclei. […] In fact, the gem counts at the highest dose of compound H approach those observed for carrier fibroblasts (GM03814). When compared against treatment with 1 μM D157495—a D156844 derivative, all of the compounds tested performed as well as or, even better than D157495.

For data set [7], the target named is CYP-450 2C9 (Homo sapiens, UniProt P11712). Put plainly: In vitro human CYP-450 study, 2C9. The data set is classed as in vitro ADME. The settings on record: human enzyme. The text has this: (§1) On the other hand, it is an inhibitor for 2C19, 2D6, 2A6 and 2C9.
Sequence of CYP-450 2C9 (P11712 whole entry): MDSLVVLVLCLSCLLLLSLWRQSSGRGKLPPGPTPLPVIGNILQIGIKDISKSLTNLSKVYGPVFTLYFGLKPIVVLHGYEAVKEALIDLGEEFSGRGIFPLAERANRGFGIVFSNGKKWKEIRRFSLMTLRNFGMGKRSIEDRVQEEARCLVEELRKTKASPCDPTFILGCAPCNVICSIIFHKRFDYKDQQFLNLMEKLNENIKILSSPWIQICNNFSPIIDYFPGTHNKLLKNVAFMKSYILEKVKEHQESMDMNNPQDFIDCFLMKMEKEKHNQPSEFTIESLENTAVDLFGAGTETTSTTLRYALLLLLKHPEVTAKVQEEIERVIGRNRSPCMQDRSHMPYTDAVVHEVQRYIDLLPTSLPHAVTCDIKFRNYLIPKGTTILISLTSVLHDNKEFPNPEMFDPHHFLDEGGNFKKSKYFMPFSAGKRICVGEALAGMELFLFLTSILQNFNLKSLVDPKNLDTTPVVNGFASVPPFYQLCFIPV
Data set [8] deals with rats. Kind of data set: Pilocarpine-induced Status Epilepticus in Rats (prevention; intervention @ 30 min).
Description: The animal testing was performed using the protocols developed in the Anticonvulsant Screening Program (ASP) at the National Institute of Neurological Disorders and Stroke (NINDS), National Institutes of Health (NIH).
The test system of data set [9] is mice. Kind of data set: Mouse formalin pain model. The data set is classed as in vivo. The settings on record: 76 mg/kg i.p., at 0.5 hours.
The test system of data set [10] is rats. Kind of data set: Minimal motor impairment (MID50), rats p.o. The data set is classed as in vivo.
The subject of data set [11] is rats. Put plainly: MES test, rats p.o. The format is in vivo. The settings on record: Rattus norvegicus, po.
Data set [12] has as its system mice. Kind of data set: Maximal Electroshock Seizure (MES) test, mice i.p. To be noted: Mus musculus, ip. The format is in vivo. A general note: Protection in the maximal electroshock model is a classic sign of anticonvulsant action.
The target in data set [13] is CYP-450 2E1 (Homo sapiens, UniProt P05181). Put plainly: In vitro human CYP-450 study, 2E1. The settings on record: human enzyme. The data set is classed as in vitro ADME.
Sequence of CYP-450 2E1 (P05181 whole entry): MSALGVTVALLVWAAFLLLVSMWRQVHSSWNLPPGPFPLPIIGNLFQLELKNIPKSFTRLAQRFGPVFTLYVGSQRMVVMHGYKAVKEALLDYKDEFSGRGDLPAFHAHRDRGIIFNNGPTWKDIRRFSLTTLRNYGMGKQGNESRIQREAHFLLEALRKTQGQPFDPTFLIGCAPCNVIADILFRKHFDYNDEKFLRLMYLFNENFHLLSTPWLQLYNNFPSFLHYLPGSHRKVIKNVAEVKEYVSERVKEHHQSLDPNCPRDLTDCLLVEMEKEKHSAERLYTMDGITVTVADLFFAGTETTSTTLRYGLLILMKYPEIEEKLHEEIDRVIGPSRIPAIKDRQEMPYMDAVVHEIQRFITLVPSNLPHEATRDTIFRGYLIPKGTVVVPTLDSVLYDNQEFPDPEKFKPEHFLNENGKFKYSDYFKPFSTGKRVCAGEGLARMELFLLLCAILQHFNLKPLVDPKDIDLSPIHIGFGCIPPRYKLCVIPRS
Text: as §1

In data set [14] the test system is identified target proteins. Put plainly: Protein profiling using Mass spectrometry after compound BX treatment. The settings on record: protein amount, preliminary. The text has this: The data presented below in Tables 10-12 illustrate various studies aimed at identifying the targets that compound BX acts upon. Table 10 illustrates preliminary protein profiling data using Mass spectrometry to identify up/down-regulation by compound BX treatment among numerous identified target proteins. In the results shown in Table 10, superoxide dismutase (SOD) protein amount is increased almost two-fold. This is a significant increase in SOD. SOD protein, which is an enzyme that alternately catalyzes the dismutation (or partitioning) of the superoxide (O2^−) radical into either ordinary molecular oxygen (O2) or hydrogen peroxide (H2O2), is strongly associated with amyotrophic lateral sclerosis (ALS). Mutations in the first SOD enzyme (SOD1) can cause familial ALS. Onset of ALS is strongly associated with oxidative stress in the neural tissue of affected individuals.

Where [15] appears, read: Rattus norvegicus, 0.5 h, read-out: Intervention @ 30 min, Protection.
Setting [16] is: Rattus norvegicus, read-out: Prevention, Protection.

Consider `CC(CC(N)=O)c1ccc(OC(F)(F)F)cc1` (racemic) [Compound H, 3-[4-(trifluoromethoxy)-phenyl]butyramide], for which the ED50 in [1] (mice) turned out to be 22.5 mg/kg; in [1] (mice i.p., @ 0.5 hr), 22.5 mg/kg; in [5] (mice i.p., @ 0.5 hrs), 91.4 mg/kg; in data set [5] (mice, i.p.), 91.4 mg/kg; in data set [11], 56.7 mg/kg; in data set [12] (mice), 76.1 mg/kg. For the same compound, the 50% effective dose (ED50) in [12] (mice i.p., @ 0.5 hrs) stood at 76.1 mg/kg. The compound also came in with a TD50 in data set [2] of 159 mg/kg. In addition, the figures for the sodium currents in data set [3] (holding potential −60 mV) and in data set [3] (holding potential −90 mV) were 91±1 % of control and 98±1 % of control, respectively. Besides, the allodynic threshold in data set [4] was 455 % of the control. Moreover, the “gem counts (SMN immunostaining, 100 nuclei)” value in data set [6] is listed as “increase gem counts in a dose-dependent manner”. The “relative potency in increasing gem counts” value in data set [6] was “most potent”. Further, in [7], the “inhibition of CYP-450 2C9” value is given as “inhibitor”. For the same compound, the responders at 176 mg/kg in data set [8] (setting [15]) is 97%. Also, the responders at 200 mg/kg in [8] (setting [16]) is 86%. For the same compound, in [9], the “pain response, acute phase” value is listed as 63 % of the control. Moreover, in data set [9], the “pain response, inflammatory phase” value is listed as 63 % of the control. This compound also returned an MID50 in data set [10] of more than 500 mg/kg. For the same compound, in data set [13], the “inhibition of CYP-450 2E1” value is “either no or only a remote possibility of inhibiting”.
For the compound `C[C@H](CC(N)=O)c1ccc(OC(F)(F)F)cc1` (single isomer, unassigned) [Compound BX, R-(−)-3-(4-Trifluoromethoxy-phenyl)butyramide], the 50% effect level in data set [1] (mice i.p., @ 0.5 hr) (ED50) was put at a dose of 16.5 mg/kg. Besides, the TD50 at 0.25 hr in data set [2] was found to be 104 mg/kg. Further, in data set [14], the “Compound Ratio, 14-3-3 Protein Gamma (P61983)” value was found to be 1.15; the “Compound Ratio, Elongation factor 1-alpha 1 (P62630)” value came out at 0.59; the “Compound Ratio, Eukaryotic translation initiation factor 5A-1 (Q3T1J1)” value is 1.64; the “Compound Ratio, Glycine tRNA ligase (G3V7G8)” value is reported as 0.67. For the same compound, in data set [14], the “Compound Ratio, Heat Shock Protein HSP 90-alpha (P82995)” value was 0.77; the “Compound Ratio, Heat shock 70 kDA protein (F1LRV4)” value is 0.73; the “Compound Ratio, Hypoxia up-regulated protein (Q63617)” value stood at 0.58; the “Compound Ratio, Malate Dehydrogenase (P04636)” value came out at 0.68. Further, in data set [14], the “Compound Ratio, Proteasome subunit alpha type-2 (P17220)” value was 0.35 and the “Compound Ratio, Superoxide dismutase [CU—Zn] (P07632)” value was 1.72. Further, the ED50 in data set [5] (mice i.p., @ 1.0 hr) came to 51.4 mg/kg. The “gem counts (SMN immunostaining, 100 nuclei)” value in [6] is recorded as “increase gem counts in a dose-dependent manner”. For the same compound, the responders at 155 mg/kg in data set [8] (setting [15]) is 50%. Besides, the responders at 100 mg/kg in data set [8] (setting [16]) came to 100%. Further, the “effect on convulsive SE” value in data set [8] (rats, 200 mg/kg, administered 30′ after the first stage 3 seizure) is recorded as “halted the convulsive SE”. Moreover, in data set [9], the “pain response, acute phase” value is 84 % of the control and the “pain response, inflammatory phase” value is given as 41 % of the control. Also, the 50% effect level in data set [12] (mice i.p., @ 1.0 hr) (ED50) was put at a dose of 47.9 mg/kg.
